One assay has as its target T1, SHP2 (Homo sapiens, UniProt Q06124).
T1 construct: purchased BPS Bioscience, Inc., San Diego, CA, USA
T1 sequence (Q06124 1-593): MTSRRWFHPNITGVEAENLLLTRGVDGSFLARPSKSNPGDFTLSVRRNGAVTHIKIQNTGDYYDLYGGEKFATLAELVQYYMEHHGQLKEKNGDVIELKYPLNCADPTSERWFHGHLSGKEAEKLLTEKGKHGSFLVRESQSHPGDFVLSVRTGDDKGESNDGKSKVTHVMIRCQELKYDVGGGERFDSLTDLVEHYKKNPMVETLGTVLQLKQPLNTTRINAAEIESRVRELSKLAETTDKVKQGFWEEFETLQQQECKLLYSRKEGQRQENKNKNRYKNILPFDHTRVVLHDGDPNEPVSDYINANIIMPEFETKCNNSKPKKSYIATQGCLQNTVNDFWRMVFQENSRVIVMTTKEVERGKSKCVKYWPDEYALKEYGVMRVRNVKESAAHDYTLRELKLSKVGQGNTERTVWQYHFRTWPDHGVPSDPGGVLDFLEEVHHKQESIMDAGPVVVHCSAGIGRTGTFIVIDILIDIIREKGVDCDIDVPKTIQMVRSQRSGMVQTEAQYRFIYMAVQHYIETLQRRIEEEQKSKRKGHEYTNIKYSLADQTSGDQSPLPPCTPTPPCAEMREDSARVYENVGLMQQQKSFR
The assay can be described thus: Enzymatic SHP2 inhibition assay (pNPP phosphatase activity). The following applies: for inhibition at 100 µM: read-out: inhibition of SHP2 enzyme; for IC50: pNPP substrate, read-out: SHP2 Obtained IC50. In kind it is biochemical. As for the experimental part:
Phosphatase Activity Assay (PTP) using p-nitrophenyl phosphate (pNPP) as a substrate was carried out in a total volume of 100 µL. This was done by monitoring the increase in phosphatase absorbance at 405 nm in the presence of the substrate using 96-well microplate reader (Thermo Scientific Multiskan GO, Waltham, MA, USA). The standard reaction mixture consisted of PTP buffer (100 mM NaCl, 2 mM EDTA, 50 mM HEPES, 3 mM DTT, pH 7.4), 100 nM of Shp2 (BPS Bioscience, Inc., San Diego, CA, USA), and 1 mM of pNPP incubated for 90 min at 30 °C. The enzymatic reaction was stopped by the addition of 50 µL of 5 M NaOH. For inhibition reaction, SHP2 enzyme was preincubated with 100 µM compound or their vehicle (DMSO) for 5 min at 37 °C, prior to the incubation with pNPP substrate for 90 min at 30 °C. The same method was used to calculate IC50 values using GraphPad Prism software 8.0 (San Diego, CA, USA). Wells with SHP2 substrate and without compounds were considered controls (enzyme activity is 100%).

In the next assay the target is SHP1 (Homo sapiens, UniProt P29350). The assay can be described thus: Enzymatic SHP1 inhibition assay (selectivity). Type of assay: biochemical. Conditions: read-out: SHP1 Obtained IC50.
Assay [1] deals with MCF-7. The assay can be described thus: Cell proliferative assay (DAPI cell count). In kind it is cell-based. The following applies: at 20 μM, 48 h, in comparison with the vehicle. As for the experimental part:
(§1) The 5 × 10^3 cells/well of MCF-7 or MDA-MB-231cell-lines were seeded in 96 well plates. The next day, cells were treated with 0.16, 0.8, 4, and 20 µM of NSC 13030, 24198, 57774, 137420, or DMSO (Sigma-Aldrich–Cat D9170, St. Louis, MO, USA) as control. After 48 h of incubation, cells were stained with DAPI (Thermo Fischer–Cat R37606, Waltham, MA, USA) and images of the entire wells were taken with a 20× objective and a DAPI filter cube using Lionheart FX automated microscope. The image analysis and cell counts were done using Gen5 software. All conditions were done in triplicates.

The test system of assay [2] is MCF-7. The assay can be described thus: Cell viability assay (CellTiter 96 AQueous One). The following applies: at 20 μM, 48 h. Type of assay: cell-based. As for the experimental part:
(§2) The percentage of viable cells was determined using The CellTiter 96® AQueous One Solution Cell Proliferation Assay (Promega–Cat G3580, Madison, WI, USA). Briefly, 5 × 10^3 cells/well of MCF-7 or MDA-MB-231 were plated in a 96 well culture plate in a total volume of 100 µL/well. The next day, cells were treated with 0.16, 0.8, 4, and 20 µM of NSC 13030, 24198, 57774, 137420, or DMSO as control. After 48 h, 20 µL of CellTiter 96 AQuoeus one solution reagent was added in each well, and incubated for 4 h in a CO2 incubator at 37 °C. The percentage of living cells was calculated by dividing the OD (490 nm) of treated cells by the same concentration of DMSO controls. All conditions were done in triplicates.

The test system of assay [3] is MDA-MB-231. The assay can be described thus: Cell proliferative assay (DAPI cell count). In kind it is cell-based. The following applies: at 20 μM, 48 h, in comparison with the vehicle. As to the method:
as §1

Assay [4] relates to MDA-MB-231. Put plainly: Cell viability assay (CellTiter 96 AQueous One). Type of assay: cell-based. The following applies: at 20 μM, 48 h. As to the method:
as §2

Sequence of SHP1 (P29350 whole entry): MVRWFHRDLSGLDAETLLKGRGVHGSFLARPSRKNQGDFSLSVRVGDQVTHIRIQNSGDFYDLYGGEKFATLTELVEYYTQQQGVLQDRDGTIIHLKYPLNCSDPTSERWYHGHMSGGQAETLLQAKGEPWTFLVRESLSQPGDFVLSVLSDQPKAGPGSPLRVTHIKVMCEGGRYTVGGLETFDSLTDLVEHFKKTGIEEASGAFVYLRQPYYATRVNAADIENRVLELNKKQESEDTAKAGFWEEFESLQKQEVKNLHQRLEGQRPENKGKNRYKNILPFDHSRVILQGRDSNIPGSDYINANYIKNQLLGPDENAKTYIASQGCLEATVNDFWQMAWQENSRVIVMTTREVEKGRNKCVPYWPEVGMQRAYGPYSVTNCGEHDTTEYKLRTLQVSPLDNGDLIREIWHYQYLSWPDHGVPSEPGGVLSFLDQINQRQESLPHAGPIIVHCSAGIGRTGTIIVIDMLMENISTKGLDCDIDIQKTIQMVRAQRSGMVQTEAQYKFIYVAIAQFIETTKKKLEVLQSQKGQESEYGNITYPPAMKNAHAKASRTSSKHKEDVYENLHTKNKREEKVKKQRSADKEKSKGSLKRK

As usually defined, the inhibition is the share of the control response that was lost under treatment. For orientation: IC50 means the point on the concentration scale where inhibition reaches its midpoint. Turning to `O=C(c1ccccc1)c1ccc2c(Cl)ccc(C(=O)O)c2c1C(=O)O` [Compound 137420], on SHP2 (at 100 μM compound), the inhibition at 100 µM worked out at 71%. The 50% inhibitory concentration (IC50) at SHP2 was 33 µM.
`COc1ccc2nc3cc(Cl)ccc3c(SC(CC(=O)O)C(=O)O)c2c1` (centres unmarked) [Compound 13030]: the IC50 was determined as 85.4 µM on SHP1 and 3.2 µM on SHP2. Besides, the “reduction of MCF-7 proliferation” value in the assay on MCF-7 [1] was 42.1%. Besides, the “reduction of MCF-7 viability” value with MCF-7 [2] is reported as 64.4%. Moreover, on SHP2 (at 100 μM compound), the inhibition at 100 µM worked out at 98%.
For `O=C(O)CSC(Nc1ccccc1C(=O)O)c1ccccc1` (centres unmarked) [Compound 24198], in that order: 14.3 µM, 1.9 µM, 34.7%, 65.2% and 99%.
In the case of `Cc1ccc(C(=O)Nc2ccc(S(=O)(=O)O)c3cc(S(=O)(=O)O)cc(S(=O)(=O)O)c23)cc1NC(=O)c1cccc(NC(=O)Nc2cccc(C(=O)Nc3cc(C(=O)Nc4ccc(S(=O)(=O)O)c5cc(S(=O)(=O)O)cc(S(=O)(=O)O)c45)ccc3C)c2)c1` [Suramin, reference compound], the IC50 at SHP1 turned out to be 15.4 µM; on SHP2, 4.5 µM. Besides, at SHP2 (at 100 μM compound), the inhibition at 100 µM was determined as 79%.
For the compound `Cc1c2oc3c(C)ccc(C(=O)O)c3nc-2c(C(=O)O)c(N)c1=O` [Compound 57774], the values for the IC50 at SHP1 and at SHP2 were 164 µM and 0.8 µM, respectively. Besides, the “reduction of MCF-7 proliferation” value in the assay with MCF-7 [1] was 74.5%. Further, in the assay on MDA-MB-231 [3], the “reduction of MDA-MB-231 proliferation” value was determined as 64%. For the same compound, in the assay on MCF-7 [2], the “reduction of MCF-7 viability” value is listed as 65.8%. Further, in the assay with MDA-MB-231 [4], the “reduction of MDA-MB-231 viability” value came out at 36.2%. Further, at SHP2 (SHP2 over SHP1), the “selectivity, inhibition activity towards SHP2 over SHP1” value stood at 200 fold. Further, the “inhibition of SHP2 enzyme” value on SHP2 (at 100 μM compound, 100 µM) is “complete SHP2 inhibition”.

The values above are taken from publication PMC9030381, “The Discovery of Potent SHP2 Inhibitors with Anti-Proliferative Activity in Breast Cancer Cell Lines” (International Journal of Molecular Sciences, 2022).
